Measurements from US20120015907A1, “Furopyridine compounds and uses thereof” (NOVARTIS AG, priority 2010, published 2012).

How the values were obtained:
HCV polymerase = target: T1, HCV polymerase (Hepatitis C virus genotype 1b, UniProt Q9WMX2); assay: biochemical; settings: polymerase assay of Biological Example 1; read-out: NS5B polymerase IC50
T1 construct: (His)6 (C)

[1] = tested on: HCV replicon I389luc-ubi-neo/NS3-3'/ET in ET (Huh-lucubineo-ET) cells; assay: Replicon assay (Biological Example 2), luciferase read-out; assay type: cell-based; settings: Hepatitis C virus, luciferase activity 48 hours after compound addition
Method: A cell line, ET (Huh-lucubineo-ET) is used for screening of compounds for inhibiting HCV RNA dependent RNA polymerase. The ET cell line is stably transfected with RNA transcripts harboring a I389luc-ubi-neo/NS3-3′/ET; replicon with firefly luciferase-ubiquitin-neomycin phosphotransferase fusion protein and EMCV-IRES driven NS3-5B polyprotein containing the cell culture adaptive mutations (E1202G; […]; K1846T) (Krieger at al, 2001 and unpublished). The ET cells are grown in DMEM (Dulbeco's Modified Eagle's Medium), supplemented with 10% fetal calf serum, 2 mM Glutamine, Penicillin (100 IU/mL)/Streptomycin (100 μg/mL), 1× nonessential amino acids, and 250 μg/mL G418 (“Geneticin”). Reagents are all available through Life Technologies (Bethesda, Md.). The cells are plated at 0.5-1.0×10^4 cells/well in the 96 well plates and incubated for 24 hrs before adding test compound. The compounds are added to the cells to achieve a final concentration of 0.1 nM to 50 μM and a final DMSO (dimethylsulfoxide) concentration of 0.5%. Luciferase activity is measured 48 hours later by adding a lysis buffer and the substrate (Catalog number Glo-lysis buffer E2661 and Bright-Glo luciferase system E2620 Promega, Madison, Wis.). Cells should not be too confluent during the assay. Percent inhibition of replication data is plotted relative to no compound control. To determine the EC50 (effective concentration at which 50% of the maximum inhibition is observed), a 10 point, 3-fold serial dilution for each compound is used, which spans a concentration range of 1000 fold. EC50 values were calculated by fitting % inhibition at each concentration to the following equation:
% inhibition=100%/[(EC50/[I])^b+1]
where b is Hill's coefficient.

Structure (SMILES) | IC50 (HCV polymerase) | IC50 [1]
CCc1cc2c(C(=O)NC)c(-c3ccc(F)cc3)oc2nc1N(CCCC1CCCS1(=O)=O)S(C)(=O)=O (racemic) [Example 22.98, 6-{[3-(1,1-Dioxo-tetrahydro-1lambdathiophen-2-yl)-propyl]-methanesulfonyl-amino}-5-ethyl-2-(4-fluoro-phenyl)-furo[2,3-b]pyridine-3-carboxylic acid methylamide] | 11 nM | ≤ 100 nM
CNC(=O)c1c(-c2ccc(F)cc2)oc2nc(N(CCCC3CCCS3(=O)=O)S(C)(=O)=O)c(C3CC3)cc12 (racemic) [Example 24.4] | 9 nM | ≤ 100 nM
CCc1cc2c(C(=O)NC)c(-c3ccc(F)cc3)oc2nc1N(CCCC1CCCS1(=O)=O)S(C)(=O)=O (single isomer, unassigned) [Example 22.991, 6-{[3-(1,1-Dioxo-tetrahydro-1lambdathiophen-2-yl)-propyl]-methanesulfonyl-amino}-5-ethyl-2-(4-fluoro-phenyl)-furo[2,3-b]pyridine-3-carboxylic acid methylamide] | 7 nM | ≤ 100 nM
CNC(=O)c1c(-c2ccc(F)cc2)oc2nc(N(CCCC3CCCS3(=O)=O)S(C)(=O)=O)c(C3CC3)cc12 (single isomer, unassigned) [Example 24.5, 5-Cyclopropyl-6-{[3-(1,1-dioxo-tetrahydrothiophen-2-yl)-propyI]-methanesulfonyl-amino}-2-(4-fluoro-phenyl)-furo[2,3-b]pyridine-3-carboxylic acid methylamide] | 1 nM | ≤ 100 nM
CNC(=O)c1c(-c2ccc(F)cc2)oc2nc3c(cc12)[C@@H](C)C[C@H](O)CN3S(C)(=O)=O (single isomer, unassigned) [Example 34] | 9 nM | ≤ 100 nM
CNC(=O)c1c(-c2ccc(F)cc2)oc2nc(N(C)S(C)(=O)=O)c(C3CC3)cc12 [Example 1, 5-Cyclopropyl-2-(4-fluoro-phenyl)-6-(methanesulfonyl-methyl-amino)-furo[2,3-b]pyridine-3-carboxylic acid methylamide] | 16 nM | ≤ 100 nM
C=Cc1cc2c(C(=O)NC)c(-c3ccc(F)cc3)oc2nc1N(C)S(C)(=O)=O [Example 2.1, 2-(4-fluorophenyl)-N-methyl-6-(N-methylmethylsulfonamido)-5-vinylfuro[2,3-b]pyridine-3-carboxamide] | 12 nM | ≤ 100 nM
CNC(=O)c1c(-c2ccc(F)cc2)oc2nc(N(CCO)S(C)(=O)=O)c(C3CC3)cc12 [Example 2.2, 5-cyclopropyl-2-(4-fluorophenyl)-6-(N-(2-hydroxyethyl)methylsulfonamido)-N-methylfuro[2,3-b]pyridine-3-carboxamide] | 54 nM | ≤ 100 nM
CNC(=O)c1c(-c2ccc(C)cc2)oc2nc(N(C)S(C)(=O)=O)c(I)cc12 [Example 2.9, 5-iodo-N-methyl-6-(N-methylmethylsulfonamido)-2-p-tolylfuro[2,3-b]pyridine-3-carboxamide] | 16 nM | ≤ 100 nM
CNC(=O)c1c(-c2ccc(C)cc2)oc2nc(N(C)S(C)(=O)=O)c(C3CC3)cc12 [Example 2.93, 5-cyclopropyl-N-methyl-6-(N-methylmethylsulfonamido)-2-p-tolylfuro[2,3-b]pyridine-3-carboxamide] | 4 nM | ≤ 100 nM
CCc1ccc(-c2oc3nc(N(C)S(C)(=O)=O)c(C4CC4)cc3c2C(=O)NC)cc1 [Example 2.94, 5-cyclopropyl-2-(4-ethylphenyl)-N-methyl-6-(N-methylmethylsulfonamido)furo[2,3-b]pyridine-3-carboxamide] | 3 nM | ≤ 100 nM
CNC(=O)c1c(-c2ccc(Cl)cc2F)oc2nc(N(C)S(C)(=O)=O)c(I)cc12 [Example 2.95, 2-(4-chloro-2-fluorophenyl)-5-iodo-N-methyl-6-(N-methylmethylsulfonamido)furo[2,3-b]pyridine-3-carboxamide] | 8 nM | ≤ 100 nM
CNC(=O)c1c(-c2ccc(Cl)cc2)oc2nc(N(C)S(C)(=O)=O)c(C3CC3)cc12 [Example 2.96] | 24 nM | ≤ 100 nM
CNC(=O)c1c(-c2ccc(Cl)cc2F)oc2nc(N(C)S(C)(=O)=O)c(C3CC3)cc12 [Example 2.97] | 4 nM | ≤ 100 nM
CNC(=O)c1c(-c2ccc(C3CC3)cc2F)oc2nc(N(C)S(C)(=O)=O)c(C3CC3)cc12 [Example 2.98, 5-cyclopropyl-2-(4-cyclopropyl-2-fluorophenyl)-N-methyl-6-(N-methylmethylsulfonamido)furo[2,3-b]pyridine-3-carboxamide] | 5 nM | ≤ 100 nM
CNC(=O)c1c(-c2ccc(F)cc2)oc2nc(N(C)S(C)(=O)=O)c(CCCCCNC(=O)OC(C)(C)C)cc12 [Example 14.1, tert-butyl 5-(2-(4-fluorophenyl)-3-(methylcarbamoyl)-6-(N-methylmethylsulfonamido)furo[2,3-b]pyridin-5-yl)pentylcarbamate] | – | ≤ 100 nM
CNC(=O)c1c(-c2ccc(F)cc2)oc2nc(N(CCCC3CCCS3(=O)=O)S(C)(=O)=O)c(C3CC3)cc12 (stereo not drawn) [Example 24.6, 5-Cyclopropyl-6-{[3-(1,1-dioxo-tetrahydrothiophen-2-yl)-propyl]-methanesulfonyl-amino}-2-(4-fluoro-phenyl)-furo[2,3-b]pyridine-3-carboxylic acid methylamide] | – | ≤ 100 nM
CCc1ccc(-c2oc3nc(N(CCCC[C@@H](COC)C(=O)O)S(C)(=O)=O)c(C4CC4)cc3c2C(=O)NC)cc1 [Example 47.4, (S)-6-(N-(5-Cyclopropyl-2-(4-ethylphenyl)-3-(methylcarbamoyl)furo[2,3-b]pyridin-6-yl)methylsulfonamido)-2-(methoxymethyl)hexanoic acid] | 3 nM | –
CNC(=O)c1c(-c2ccc(C)cc2)oc2nc(N(CCCC[C@H](COC)C(=O)O)S(C)(=O)=O)c(C3CC3)cc12 [Example 47.5, (R)-6-(N-(5-Cyclopropyl-3-(methylcarbamoyl)-2-p-tolylfuro[2,3-b]pyridin-6-yl)methylsulfonamido)-2-(methoxymethyl)hexanoic acid] | 3 nM | –
CNC(=O)c1c(-c2ccc(C)cc2)oc2nc(N(CCCC[C@H](COC)C(=O)N[C@H](CO)Cc3ccccc3)S(C)(=O)=O)c(C3CC3)cc12 [Example 47.6, 5-Cyclopropyl-6-(N—((R)-6-((S)-1-hydroxy-3-phenylpropan-2-ylamino)-5-(methoxymethyl)-6-oxohexyl)methylsulfonamido)-N-methyl-2-p-tolylfuro[2,3-b]pyridine-3-carboxamide] | 5 nM | –
CNC(=O)c1c(-c2ccc(C)cc2)oc2nc(N(CCC[C@H](COC)C(=O)O)S(C)(=O)=O)c(C3CC3)cc12 [Example 47.7, (R)-5-(N-(5-Cyclopropyl-3-(methylcarbamoyl)-2-p-tolylfuro[2,3-b]pyridin-6-yl)methylsulfonamido)-2-(methoxymethyl)pentanoic acid] | 2 nM | –
CNC(=O)c1c(-c2ccc(C)cc2)oc2nc(N(CCC[C@H](COC)C(=O)N3C(=O)OC[C@@H]3Cc3ccccc3)S(C)(=O)=O)c(I)cc12 [Example 47.71] | 26 nM | –
CNC(=O)c1c(-c2ccc(C)cc2)oc2nc(N(CCC[C@H](COC)C(=O)N3C(=O)OC[C@@H]3Cc3ccccc3)S(C)(=O)=O)c(C3CC3)cc12 [Example 47.72] | 6 nM | –
CNC(=O)c1c(-c2ccc(C)cc2)oc2nc(N(CCCC3(CC(=O)O)CCOCC3)S(C)(=O)=O)c(C3CC3)cc12 [Example 48, 2-(4-(3-(N-(5-cyclopropyl-3-(methylcarbamoyl)-2-p-tolylfuro[2,3-b]pyridin-6-yl)methylsulfonamido)propyl)tetrahydro-2H-pyran-4-yl)acetic acid] | 8 nM | –
CNC(=O)c1c(-c2ccc(C)cc2)oc2nc(N(CCC[C@H](C)C(=O)OCOP(=O)(O)O)S(C)(=O)=O)c(C3CC3)cc12 [Example 49, (S)-(phosphonooxy)methyl 5-(N-(5-cyclopropyl-3-(methylcarbamoyl)-2-(p-tolyl)furo[2,3-b]pyridin-6-yl)methylsulfonamido)-2-methylpentanoate] | 2 nM | –
CNC(=O)c1c(-c2ccc(C)cc2)oc2nc(N(CCC[C@H](C)C(=O)OCOP(=O)(OCc3ccccc3)OCc3ccccc3)S(C)(=O)=O)c(C3CC3)cc12 [Example 49.1, (S)-((bis(benzyloxy)phosphoryl)oxy)methyl 5-(N-(5-cyclopropyl-3-(methylcarbamoyl)-2-(p-tolyl)furo[2,3-b]pyridin-6-yl)methylsulfonamido)-2-methylpentanoate] | 6 nM | –
CNC(=O)c1c(-c2ccc(C)cc2)oc2nc(N(CCCC(O)C(C)(C)C(=O)O)S(C)(=O)=O)c(C3CC3)cc12 (stereo not drawn) [Example 50, 6-(N-(5-cyclopropyl-3-(methylcarbamoyl)-2-p-tolylfuro[2,3-b]pyridin-6-yl)methylsulfonamido)-3-hydroxy-2,2-dimethylhexanoic acid] | 3 nM | –
